Source: patent US10004701B2, “Methods and compositions for treating infection” (UNIVERSITY OF ROCHESTER, priority 2012, dated 2018)

What was measured:
Experiment in all cases: AK assay 384-well format, Prestwick library screening
K. pneumoniae = type: cell-based, Klebsiella pneumoniae; conditions: 50 μM final drug concentration; for AK-based Prestwick library screening result, K. pneumoniae (fold increase in extracellular AK activity): positive cutoff 3-fold increase
[1] = test system: A. baumannii strain 98-37-09; type: cell-based, Acinetobacter baumannii; conditions: 50 μM final drug concentration; for AK-based Prestwick library screening result, A. baumannii (fold increase in extracellular AK activity): positive cutoff 3-fold increase
E. coli = type: cell-based, Escherichia coli; conditions: 50 μM final drug concentration
E. faecium = type: cell-based, Enterococcus faecium; conditions: 50 μM final drug concentration; for AK-based Prestwick library screening result, E. faecium (fold increase in extracellular AK activity): positive cutoff 3-fold increase
P. aeruginosa = type: cell-based, Pseudomonas aeruginosa; conditions: 50 μM final drug concentration; for AK-based Prestwick library screening result, P. aeruginosa (fold increase in extracellular AK activity): positive cutoff 3-fold increase
E. cloacae = type: cell-based, Enterobacter cloacae; conditions: 50 μM final drug concentration; for AK-based Prestwick library screening result, E. cloacae (fold increase in extracellular AK activity): positive cutoff 3-fold increase
[2] = test system: S. aureus strain USA300-0114; type: cell-based, Staphylococcus aureus; conditions: 50 μM final drug concentration; for AK-based Prestwick library screening result, S. aureus (fold increase in extracellular AK activity): positive cutoff 3-fold increase
[3] = planktonic, cutoff for positive 3-fold increase
[4] = 384-well format, cutoff for positive-scoring molecules 3-fold increase
[5] = planktonic, cutoff for positive-scoring molecules 3-fold increase

## CNC(=O)c1c(I)c(C(=O)NCC(=O)Nc2c(I)c(C(=O)O)c(I)c(C(=O)NCCO)c2I)c(I)c(N(C)C(C)=O)c1I [loxaglic acid]
K. pneumoniae; planktonic K. pneumoniae
  AK-based Prestwick library screening result, K. pneumoniae (fold increase in extracellular AK activity): 0.8
[1]; planktonic A. baumannii
  AK-based Prestwick library screening result, A. baumannii (fold increase in extracellular AK activity): 0.8
E. coli; planktonic E. coli, […]
  AK-based Prestwick library screening result, E. coli (fold increase in extracellular AK activity): 0.9
E. faecium; planktonic E. faecium
  AK-based Prestwick library screening result, E. faecium (fold increase in extracellular AK activity): 0.9
P. aeruginosa; planktonic P. aeruginosa
  AK-based Prestwick library screening result, P. aeruginosa (fold increase in extracellular AK activity): 0.8
E. cloacae; planktonic E. cloacae
  AK-based Prestwick library screening result, E. cloacae (fold increase in extracellular AK activity): 1.1
[2]; planktonic S. aureus
  AK-based Prestwick library screening result, S. aureus (fold increase in extracellular AK activity): 0.6

## (S)-(−)-Atenolol
K. pneumoniae; [3]
  AK-based Prestwick Library Screening Results, K. pneumoniae (fold increase in extracellular AK activity): 0.9
[1]; [3]
  AK-based Prestwick Library Screening Results, A. baumannii (fold increase in extracellular AK activity): 1.1
E. coli; [3]
  AK-based Prestwick Library Screening Results, E. coli (fold increase in extracellular AK activity): 1.2
E. faecium; [3]
  AK-based Prestwick Library Screening Results, E. faecium (fold increase in extracellular AK activity): 1.0
P. aeruginosa; [3]
  AK-based Prestwick Library Screening Results, P. aeruginosa (fold increase in extracellular AK activity): 1.1
E. cloacae; [3]
  AK-based Prestwick Library Screening Results, E. cloacae (fold increase in extracellular AK activity): 1.7
[2]; [3]
  AK-based Prestwick Library Screening Results, S. aureus (fold increase in extracellular AK activity): 1.2

## (S)-propranolol hydrochloride
K. pneumoniae; planktonic K. pneumoniae
  AK-based Prestwick library screening result, K. pneumoniae (fold increase in extracellular AK activity): 1.0
[1]; planktonic A. baumannii
  AK-based Prestwick library screening result, A. baumannii (fold increase in extracellular AK activity): 1.0
E. coli; planktonic E. coli, positive cutoff 3-fold increase
  AK-based Prestwick library screening result, E. coli (fold increase in extracellular AK activity): 1.2
E. faecium; planktonic E. faecium
  AK-based Prestwick library screening result, E. faecium (fold increase in extracellular AK activity): 1.1
P. aeruginosa; planktonic P. aeruginosa
  AK-based Prestwick library screening result, P. aeruginosa (fold increase in extracellular AK activity): 1.1
E. cloacae; planktonic E. cloacae
  AK-based Prestwick library screening result, E. cloacae (fold increase in extracellular AK activity): 1.6
[2]; planktonic S. aureus
  AK-based Prestwick library screening result, S. aureus (fold increase in extracellular AK activity): 1.0

## (−)-MK 801 hydrogen maleate
K. pneumoniae; […]
  AK-based Prestwick Library Screening Results, K. pneumoniae (fold increase in extracellular AK activity): 1.0
[1]; […]
  AK-based Prestwick Library Screening Results, A. baumannii (fold increase in extracellular AK activity): 1.1
E. coli; […]
  AK-based Prestwick Library Screening Results, E. coli (fold increase in extracellular AK activity): 1.2
E. faecium; […]
  AK-based Prestwick Library Screening Results, E. faecium (fold increase in extracellular AK activity): 1.0
P. aeruginosa; […]
  AK-based Prestwick Library Screening Results, P. aeruginosa (fold increase in extracellular AK activity): 1.3
E. cloacae; […]
  AK-based Prestwick Library Screening Results, E. cloacae (fold increase in extracellular AK activity): 1.9
[2]; […]
  AK-based Prestwick Library Screening Results, S. aureus (fold increase in extracellular AK activity): 1.1

## Alverine citrate salt
K. pneumoniae; [4]
  AK-based Prestwick Library Screening Results, K. pneumoniae (increase in extracellular AK activity): 0.7
[1]; [4]
  AK-based Prestwick Library Screening Results, A. baumannii (increase in extracellular AK activity): 0.9
E. coli; [4]
  AK-based Prestwick Library Screening Results, E. coli (increase in extracellular AK activity): 0.9
E. faecium; [4]
  AK-based Prestwick Library Screening Results, E. faecium (increase in extracellular AK activity): 0.9
P. aeruginosa; [4]
  AK-based Prestwick Library Screening Results, P. aeruginosa (increase in extracellular AK activity): 0.8
E. cloacae; [4]
  AK-based Prestwick Library Screening Results, E. cloacae (increase in extracellular AK activity): 0.9
[2]; [4]
  AK-based Prestwick Library Screening Results, S. aureus (increase in extracellular AK activity): 0.7

## Antimycin A
K. pneumoniae; planktonic K. pneumoniae, 384-well, […]
  AK-based Prestwick Library Screening Results: K. pneumoniae (increase in extracellular AK activity): 1.0
[1]; planktonic A. baumannii, 384-well, […]
  AK-based Prestwick Library Screening Results: A. baumannii (increase in extracellular AK activity): 1.4
E. coli; planktonic E. coli, 384-well, […]
  AK-based Prestwick Library Screening Results: E. coli (increase in extracellular AK activity): 1.3
E. faecium; planktonic E. faecium, 384-well, […]
  AK-based Prestwick Library Screening Results: E. faecium (increase in extracellular AK activity): 1.1
P. aeruginosa; planktonic P. aeruginosa, 384-well, […]
  AK-based Prestwick Library Screening Results: P. aeruginosa (increase in extracellular AK activity): 1.1
E. cloacae; planktonic E. cloacae, 384-well, […]
  AK-based Prestwick Library Screening Results: E. cloacae (increase in extracellular AK activity): 1.3
[2]; planktonic S. aureus, 384-well, […]
  AK-based Prestwick Library Screening Results: S. aureus (increase in extracellular AK activity): 1.0

## Avermectin B1
K. pneumoniae; [5]
  AK-based Prestwick Library Screening Results, K. pneumoniae (fold increase in extracellular AK activity): 0.6
[1]; [5]
  AK-based Prestwick Library Screening Results, A. baumannii (fold increase in extracellular AK activity): 0.8
E. coli; [5]
  AK-based Prestwick Library Screening Results, E. coli (fold increase in extracellular AK activity): 0.8
E. faecium; [5]
  AK-based Prestwick Library Screening Results, E. faecium (fold increase in extracellular AK activity): 1.2
P. aeruginosa; [5]
  AK-based Prestwick Library Screening Results, P. aeruginosa (fold increase in extracellular AK activity): 0.6
E. cloacae; [5]
  AK-based Prestwick Library Screening Results, E. cloacae (fold increase in extracellular AK activity): 0.9
[2]; [5]
  AK-based Prestwick Library Screening Results, S. aureus (fold increase in extracellular AK activity): 1.7
